Results published in patent US10765729B2, “Tumor antigen peptide” (Sapporo Medical University, priority 2014, dated 2020).
Several values for one entry are separate records, joined by “and”; a condition that tells them apart may be missing. Equal values may be shown once. Where no end group is shown, it is not given here.

Legend:
[1] = tested on: peripheral blood mononuclear cells derived from HLA-A*02:01-positive healthy individuals; test: CTL inducibility using human peripheral blood mononuclear cells, IFNγ ELISPOT; format: cell-based; conditions: peptide 20 μg/mL, IL-2 100 U/mL, about 2 weeks, FIGS. 39-43
Method: (§1) Subsequently, approximately 1×10^5 cells were plated in each well of a 96-well U bottom plate, and cultured at 37° C. under 5% CO2. At this time, human IL-2 and peptide were added at 100 U/mL and 20 μg/mL, respectively. The medium was exchanged every 3 or 4 days and an IFNγ ELISPOT assay was carried out after about 2 weeks. On the day before the assay, ELISPOT plates were treated with anti-IFNγ antibody, and on the day of assay, they were blocked with RPMI1640 medium containing 10% fetal calf serum at room temperature for about 2 hours. The human peripheral blood mononuclear cells in the culture were washed with an AIM-V medium containing 10% human-derived serum and plated in each well of the blocked ELISPOT plate. After culturing at 37° C. under 5% CO2 for 16 to 18 hours, the supernatant was removed and the ELISPOT plates were subjected to color development according to the attached protocol. The number of colored spots was measured with an ELISPOT analyzer manufactured by Cellular Technology Limited. […] In addition, black bars indicate the number of spots detected under peptide stimulation conditions, and white bars indicate the number of spots (controls) detected under no peptide pulse conditions.

[2] = tested on: peripheral blood mononuclear cells derived from HLA-A*24:02-positive healthy individuals; test: as above; format: cell-based; conditions: peptide 20 μg/mL, IL-2 100 U/mL, about 2 weeks, FIGS. 44, 45
Method: as §1

[3] = target: HLA-A*24:02 (Homo sapiens, UniProt P04439, D101N/D140Y/D185E/E176V/E190D/F33S/G103R/G107R/I119L/I121M/I306V/K335N/L105A/L180Q/L300P/N151K/N90K/Q86E/Q94H/R106L/R138H/R89G/T104I/T345S/V100E/W191G/Y123F); format: binding
[4] = target: T1, HLA-A*02:01 (Homo sapiens, UniProt P04439, D140Y/D185E/D98H/E176V/E277Q/G131W/G231S/I119V/I121R/I166T/I218V/L300P/L318F/N151K/N90K/P208A/P217A/Q86G/Q94H/R138H/R169H/T345S); format: binding
T1 construct: T2 cells can usually only express a low level of empty MHC class I molecules on the cell surface; endogenous in cells; host or cells: T2-A24 cells (human lymphoblastoid T2 cells)

[5] = tested on: human colon cancer cell line (SW480); test: Detection of SP fraction by Hoechst 33342/PI flow cytometry; format: cell-based; conditions: verapamil final concentration 75 μM; Hoechst 33342 5.0 μM; FIG. 1
Method: 5% fetal calf serum (FCS (HyClone Laboratories))-supplemented DMEM (Sigma-Aldrich) medium was prepared as a medium and warmed at 37° C. Verapamil (Sigma-Aldrich) was adjusted to 50 mM and diluted to 5 mM using the 5% FCS-supplemented DMEM medium. Hoechst 33342 (Lonza) was adjusted to 250 μg/mL using the 5% FCS-supplemented DMEM medium. DNase I (Qiagen) was adjusted to 1 mg/mL using DDW and sterilized by filtration using a 0.2 μm filter.
A human colon cancer cell line (SW480 (ATCC)) was suspended in 4 mL of the 5% FCS-supplemented DMEM medium, and the number of cells was counted. Furthermore, the 5% FCS-supplemented DMEM medium was added so as to adjust the cell concentration to 10×10^6 cells/mL, thus giving a sample. Using part of the sample, dispensing was carried out; verapamil was not added to a main sample (verapamil(−) sample), and verapamil was added to a secondary sample so as to give a final concentration of 75 μM (verapamil(+) sample). Subsequently, the Hoechst 33342 solution was added to the verapamil(+) sample and the verapamil(−) sample so as to give a Hoechst 33342 final concentration of 5.0 μM. […]
First, cells in the verapamil(−) sample were analyzed, and cells in a cell group (side population (SP)) having low emission intensity compared with a main cell group (main population (MP)) were detected (FIG. 1).

[6] = tested on: T2-A24 cells; test: Cytotoxicity test (LDH release) of CTLs toward peptide-pulsed T2-A24 cells; format: cell-based, human; conditions: peptide pulse 20 μg/mL; E/T ratio 1, 3, 9; CTL induced by IV9; FIG. 10
Method: (§2) T2-A24 cells, SW480-SP, SW480-MP, and K562 HLA-class I-deficient leukemia cells (obtained from ATCC) were suspended in 10% FBS-supplemented RPMI at a cell concentration of 1×10^6 cells/mL. Washing was carried out three times with 10 mL of 10% FBS-supplemented RPMI.
(§3) T2-A24 cells were pulsed with IV9 peptide and HIV584-594 peptide as a positive control for T2-A24 cell binding, at a concentration of 20 μg/mL at room temperature for 1 hour. As a negative control, a group without peptide pulses was used. With regard to experimental group of T2-A24 cells, three groups were defined: [1] no peptide pulse, [2] HIV584-594 peptide pulse, and [3] IV9 peptide pulse. In addition, K562 was pulsed with IV9 peptide under the same conditions. Both SW480-SP and SW480-MP groups were used without peptide pulses. After the peptide pulse, the cells were washed twice with PBS. The cells of each group were plated on each well at 1×10^5 cells/100 μL.
(§4) Respective numbers of effector cells (CTLs) were plated on each well so that the effector/target ratio (E/T ratio) became 1, 3, and 9. Effector cells were plated as a spontaneous release well. To the maximum release well, 4% of NP-40-added PBS was added to the target cells so that the final concentration became 2%. […] After 10 minutes, fluorescence intensity of each well was measured by Terra Scan. Cytotoxic activity was calculated using the equation below. […]

[7] = tested on: SW480-MP; test: Cytotoxicity test (LDH release) of CTLs toward SW480-MP without peptide pulse; format: cell-based, human; conditions: CTL induced by IV9, FIG. 10
Method: as §2, §3, §4

## 4 (HLSVLFGHV) [compound 4]
[1]
  induction of peptide-specific CTLs from PBMC: able to induce peptide-specific CTLs

## 5 (SVLFGHVECL) [compound 5]
[1]
  induction of peptide-specific CTLs from PBMC: able to induce peptide-specific CTLs
[2]
  induction of peptide-specific CTLs from PBMC: has CTL inducibility in both HLA-A02 type and HLA-A24 type subjects

## 6 (KILCDRGAKL) [compound 6]
[1]
  induction of peptide-specific CTLs from PBMC: able to induce peptide-specific CTLs

## 8 (HFGLSELVAFYV) [compound 8]
[1]
  induction of peptide-specific CTLs from PBMC: able to induce peptide-specific CTLs
[2]
  induction of peptide-specific CTLs from PBMC: has CTL inducibility in both HLA-A02 type and HLA-A24 type subjects

## 9 (CYSLSGHTAL) [compound 9]
[1]
  induction of peptide-specific CTLs from PBMC: able to induce peptide-specific CTLs

## 17 (SILCAKQLV) [compound 17]
[3]
  MFI HLA-A24: 1.3

## 20 (HVLMHMMLEA) [compound 20]
[3]
  MFI HLA-A24: 1.3

## 23 (YLLLEPEGII) [compound 23]
[3]
  MFI HLA-A24: 1.4

## 28 (RIYPPQFHKV) [compound 28]
[4]
  MFI HLA-A02: 1.4

## 34 (FEVEDENMVL) [compound 34]
[3]
  MFI HLA-A24: 1.4

## 40 (QYVLKVTSV) [compound 40]
[3]
  MFI HLA-A24: 1.3

## 41 (LLLNHGAARI) [compound 41]
[4]
  MFI HLA-A02: 1.3

## COc1ccc(CCN(C)CCCC(C#N)(c2ccc(OC)c(OC)c2)C(C)C)cc1OC (centres unmarked) [verapamil, Verapamil]
[5]
  SP cells in flow cytometry: SP cells disappeared

## EADPTGHSY [HLA-A*02:01 Negative control, MAGE-1161-169 peptide as an HLA-A02-negative control, reference compound]
[4]
  HLA-A*02:01 Negative control (MFI): 1.0

## IYPPQFHKV [SEQ ID No. 3]
[6]
  cytotoxic activity of CTLs toward peptide-pulsed T2-A24 cells: high cytotoxic activity
[7]
  cytotoxic activity of CTLs toward SW480-MP: only a similar cytotoxic activity as [1] no peptide pulse group and [2] HIV peptide pulse group

## RGYVYQGL [HLA-A*24:02 Negative control, reference compound]
[3]
  HLA-A*24:02 Negative control (MFI): 1.0

## RYLRDQQLL [HLA-A*24:02 Positive control, HIV584-592 peptide as an HLA-A24-positive control, reference compound]
[3]
  HLA-A*24:02 Positive control (MFI): 2.6 and 3.3 and 2.8
